Experimental data reported in patent US11192899B2 (MERCK PATENT GMBH, priority 2017, dated 2021).
Like-named read-outs stand apart in the source and are kept apart here.

What was measured:
Assay type in all cases: cell-based
[1] = molecular target: T1, A2B receptors (Homo sapiens, UniProt P29275); assay: cAMP HTRF functional assay, recombinant HEK293 cells expressing human A2B receptor, agonist NECA; design: expressed in transfected cells; host or cells: HEK293
T1 sequence (P29275 1-332): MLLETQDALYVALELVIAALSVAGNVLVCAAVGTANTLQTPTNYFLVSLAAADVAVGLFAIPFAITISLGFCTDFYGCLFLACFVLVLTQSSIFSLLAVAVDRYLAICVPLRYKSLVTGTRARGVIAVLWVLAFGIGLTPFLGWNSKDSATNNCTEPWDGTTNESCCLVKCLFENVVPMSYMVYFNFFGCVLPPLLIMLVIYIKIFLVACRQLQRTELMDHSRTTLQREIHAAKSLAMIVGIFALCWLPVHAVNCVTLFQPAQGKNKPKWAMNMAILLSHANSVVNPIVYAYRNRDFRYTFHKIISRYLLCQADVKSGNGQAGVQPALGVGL
Method: (§1) The functional activities of human A2A, A2B, A1 and A3 receptors were determined by quantification of cAMP, being the second messenger for adenosine receptors.
(§2) Obtained raw data were normalized against the inhibitor control and the neural control (DMSO) and the normalized data were fitted using GeneData software.

[2] = molecular target: T2, human A3 receptor (Homo sapiens, UniProt P0DMS8); assay: cAMP HTRF functional assay, recombinant CHO cells expressing human A3 receptor, forskolin and agonist IB-MECA
T2 construct: expressed in transfected cells; host or cells: CHO
T2 sequence (P0DMS8 1-318): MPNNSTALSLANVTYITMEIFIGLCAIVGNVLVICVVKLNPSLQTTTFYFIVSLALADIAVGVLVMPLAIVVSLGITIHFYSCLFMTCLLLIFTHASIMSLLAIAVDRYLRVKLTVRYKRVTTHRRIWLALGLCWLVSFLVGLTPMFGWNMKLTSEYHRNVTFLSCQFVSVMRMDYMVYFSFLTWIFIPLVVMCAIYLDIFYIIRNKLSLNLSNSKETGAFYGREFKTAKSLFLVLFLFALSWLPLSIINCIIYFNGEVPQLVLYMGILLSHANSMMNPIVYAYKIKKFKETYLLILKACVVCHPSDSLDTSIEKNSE
Method: as §1
(§3) For human A1 and A3 receptors, recombinant CHO cells, expressing either A1 or A3-receptor, were used. As both receptors couple to Gi proteins, the assay protocol was adapted:
(§4) Cells were seeded into 384-well plates, forskolin, test compounds and agonists (CPA for A1- and IB-MECA for A3-receptor) were added. After 30 min incubation, HTRF reagents (cAMP dynamic 2, Cis Bio) were added and the cellular cAMP levels were determined using the ENVISION (Perkin Elmer) plate reader.
as §2

[3] = molecular target: T3, human A1 receptor (Homo sapiens, UniProt P30542); assay: cAMP HTRF functional assay, recombinant CHO cells expressing human A1 receptor, forskolin and agonist CPA
T3 construct: expressed in transfected cells; host or cells: CHO
T3 sequence (P30542 1-326): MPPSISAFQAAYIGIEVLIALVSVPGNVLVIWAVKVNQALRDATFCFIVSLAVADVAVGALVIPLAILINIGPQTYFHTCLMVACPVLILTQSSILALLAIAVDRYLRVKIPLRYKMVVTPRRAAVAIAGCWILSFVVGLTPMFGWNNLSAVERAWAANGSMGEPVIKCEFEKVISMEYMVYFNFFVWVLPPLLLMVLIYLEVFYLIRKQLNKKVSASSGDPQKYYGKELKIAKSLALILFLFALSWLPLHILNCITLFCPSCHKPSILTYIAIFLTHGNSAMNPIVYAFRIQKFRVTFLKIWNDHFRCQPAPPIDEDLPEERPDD
Method: as §1, §3, §4, §2

[4] = molecular target: T4, human A2A receptor (Homo sapiens, UniProt P29274); assay: cAMP HTRF functional assay, recombinant HEK293 cells expressing human A2A receptor, agonist NECA
T4 construct: expressed in transfected cells; host or cells: HEK293
Method: as §1, §2

[5] = recombinant HEK293 cells, cAMP, agonist NECA

T4 sequence (P29274 whole entry): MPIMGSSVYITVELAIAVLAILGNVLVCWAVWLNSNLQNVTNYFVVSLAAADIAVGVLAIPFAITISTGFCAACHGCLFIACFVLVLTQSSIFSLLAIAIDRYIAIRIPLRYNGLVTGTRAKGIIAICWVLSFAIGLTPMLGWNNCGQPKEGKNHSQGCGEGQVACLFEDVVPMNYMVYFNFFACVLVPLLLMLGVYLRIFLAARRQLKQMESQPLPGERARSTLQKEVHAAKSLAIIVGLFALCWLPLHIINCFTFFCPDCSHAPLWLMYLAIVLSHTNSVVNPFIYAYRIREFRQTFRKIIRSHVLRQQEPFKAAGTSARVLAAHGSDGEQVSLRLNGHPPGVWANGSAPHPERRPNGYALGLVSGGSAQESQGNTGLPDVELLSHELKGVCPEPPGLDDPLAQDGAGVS

| IC50 [1, 5] | IC50 [2] | IC50 [3] | IC50 [4, 5] | IC50 [1] | IC50 [4] | Compound |
| --- | --- | --- | --- | --- | --- | --- |
| < 1000 nM | > 1000 nM | > 1000 nM | < 100 nM |  |  | 4-hydroxy-N-[8-methoxy-5-(2-methylphenyl)quinoxalin-2-yl]-4-methylpiperidine-1-carboxamide [compound 29] |
|  | > 1000 nM | > 1000 nM |  | > 1000 nM | < 100 nM | COc1ccc(C2CCOCC2)c2ncc(NC(=O)c3coc(C)n3)nc12 [compound 16] |
|  | > 1000 nM | < 1000 nM |  | < 100 nM | < 10 nM | COc1ccc(-c2ccccc2)c2ncc(NC(=O)c3cnc(C)s3)nc12 [compound 48] |
|  | < 1000 nM | < 1000 nM |  | < 100 nM | < 10 nM | COc1ccc(-c2ccccc2)c2ncc(NC(=O)c3cnc(C)o3)nc12 [compound 105, N-(8-methoxy-5-phenylquinoxalin-2-yl)-2-methyl-1,3-oxazole-5-carboxamide] |
|  | > 1000 nM | < 1000 nM |  | < 100 nM | < 10 nM | COc1ncc(C2CCOCC2)c2ncc(NC(=O)C3CC3)nc12 [compound 106, Cyclopropanecarboxylic acid [5-methoxy-8-(tetrahydro-pyran-4-yl)-pyrido[3,4-b]pyrazin-3-yl]-amide] |
|  | > 1000 nM | > 1000 nM |  | > 1000 nM | < 100 nM | COCCOCc1cccc(-c2ccc(OC)c3nc(NC(=O)N4CCC(C)(O)CC4)cnc23)c1 [compound 118, 4-hydroxy-N-(8-methoxy-5-{3-[(2-methoxyethoxy)methyl]phenyl}quinoxalin-2-yl)-4-methylpiperidine-1-carboxamide] |
|  | < 1000 nM | < 1000 nM |  | < 100 nM | < 10 nM | COc1ccc(-c2ccccc2F)c2ncc(NC(=O)C3CC3)nc12 [compound 120, N-[5-(2-fluorophenyl)-8-methoxyquinoxalin-2-yl]cyclopropanecarboxamide] |
|  | < 1000 nM | < 1000 nM |  | < 1000 nM | < 100 nM | COc1ccc(-c2cccnc2)c2ncc(NC(=O)C3CC3)nc12 [compound 121, N-[8-methoxy-5-(pyridin-3-yl)quinoxalin-2-yl]cyclopropanecarboxamide] |
|  | > 1000 nM | > 1000 nM |  |  | < 100 nM | COc1ccc(N2CCCCCC2)c2ncc(NC(=O)C3CC3)nc12 [compound 122, N-[5-(azepan-1-yl)-8-methoxyquinoxalin-2-yl]cyclopropanecarboxamide] |
|  | < 1000 nM | < 1000 nM |  | < 100 nM | < 10 nM | COc1ccc(-c2cccc(F)c2F)c2ncc(NC(=O)C3CC3)nc12 [compound 123, N-[5-(2,3-difluorophenyl)-8-methoxyquinoxalin-2-yl]cyclopropanecarboxamide] |
|  | < 1000 nM | < 1000 nM |  | > 1000 nM | < 10 nM | COc1ccc(-c2cc(F)ccc2F)c2ncc(NC(=O)C3CC3)nc12 [compound 124, N-[5-(2,5-difluorophenyl)-8-methoxyquinoxalin-2-yl]cyclopropanecarboxamide] |
|  | < 1000 nM | < 1000 nM |  | < 100 nM | < 10 nM | COc1ccc(-c2ccc(F)cc2)c2ncc(NC(=O)C3CC3)nc12 [compound 126, N-[5-(4-fluorophenyl)-8-methoxyquinoxalin-2-yl]cyclopropanecarboxamide] |
|  | < 1000 nM | > 1000 nM |  |  | < 100 nM | COc1ccc(-c2cc(F)ccc2F)c2ncc(NC(=O)c3cnc(C)o3)nc12 [compound 128, N-[5-(2,5-difluorophenyl)-8-methoxyquinoxalin-2-yl]-2-methyl-1,3-oxazole-5-carboxamide] |
|  | < 1000 nM | < 1000 nM |  | < 100 nM | < 10 nM | COc1ccc(-c2ccc(F)cc2)c2ncc(NC(=O)c3cnc(C)o3)nc12 [compound 131, N-[5-(4-fluorophenyl)-8-methoxyquinoxalin-2-yl]-2-methyl-1,3-oxazole-5-carboxamide] |
|  | > 1000 nM | < 1000 nM |  | < 100 nM | < 10 nM | COc1ccc(C2=CCOCC2)c2ncc(NC(=O)c3cnc(C)s3)nc12 [compound 134, N-[5-(3,6-dihydro-2H-pyran-4-yl)-8-methoxyquinoxalin-2-yl]-2-methyl-1,3-thiazole-5-carboxamide] |
|  | > 1000 nM | < 1000 nM |  | < 100 nM | < 10 nM | COc1ccc(C2=CCOCC2)c2ncc(NC(=O)c3cnsc3)nc12 [compound 136, N-[5-(3,6-dihydro-2H-pyran-4-yl)-8-methoxyquinoxalin-2-yl]-1,2-thiazole-4-carboxamide] |
|  | > 1000 nM | < 10 nM |  | < 100 nM | < 100 nM | COc1ccc(-c2cccnc2)c2ncc(NC(=O)c3cnc(C)o3)nc12 [compound 138, N-[8-methoxy-5-(pyridin-3-yl)quinoxalin-2-yl]-2-methyl-1,3-oxazole-5-carboxamide] |
|  | < 1000 nM | < 1000 nM |  | < 100 nM | < 100 nM | COc1ccc(C2=CCOC2)c2ncc(NC(=O)C3CC3)nc12 [compound 141, N-[5-(2,5-dihydrofuran-3-yl)-8-methoxyquinoxalin-2-yl]cyclopropanecarboxamide] |
|  |  | > 1000 nM |  | > 1000 nM | < 100 nM | CCOC(=O)c1nnc(NC(=O)Nc2cnc3c(C4=CCOCC4)ccc(OC)c3n2)s1 [compound 143, ethyl 5-({[5-(3,6-dihydro-2H-pyran-4-yl)-8-methoxyquinoxalin-2-yl]carbamoyl}amino)-1,3,4-thiadiazole-2-carboxylate] |
|  | < 1000 nM | < 1000 nM |  | < 100 nM | < 10 nM | COCCOc1cccc(-c2ccc(OC)c3nc(NC(=O)C4CC4)cnc23)c1 [compound 147, N-{8-methoxy-5-[3-(2-methoxyethoxy)phenyl]quinoxalin-2-yl}cyclopropanecarboxamide] |
|  | > 1000 nM | < 1000 nM |  | < 100 nM | < 10 nM | COCCOc1cccc(-c2ccc(OC)c3nc(NC(=O)c4cnc(C)o4)cnc23)c1 [compound 148, N-{8-methoxy-5-[3-(2-methoxyethoxy)phenyl]quinoxalin-2-yl}-2-methyl-1,3-oxazole-5-carboxamide] |
|  | < 1000 nM | > 1000 nM |  |  | < 100 nM | COc1ccc(-c2ccccc2)c2ncc(NC(=O)C3(C(=O)N(C)C)CC3)nc12 [compound 149, N′1-(8-methoxy-5-phenylquinoxalin-2-yl)-N1,N1-dimethylcyclopropane-1,1-dicarboxamide] |
|  | > 1000 nM | < 1000 nM |  | > 1000 nM | < 100 nM | COCCOc1cccc(-c2ccc(OC)c3nc(NC(=O)c4cnc(C)s4)cnc23)c1 [compound 151, N-{8-methoxy-5-[3-(2-methoxyethoxy)phenyl]quinoxalin-2-yl}-2-methyl-1,3-thiazole-5-carboxamide] |
|  | > 1000 nM |  |  |  | < 100 nM | COCCOc1cccc(-c2ccc(OC)c3nc(NC(=O)c4nnc(C)s4)cnc23)c1 [compound 152, N-{8-methoxy-5-[3-(2-methoxyethoxy)phenyl]quinoxalin-2-yl}-5-methyl-1,3,4-thiadiazole-2-carboxamide] |
|  |  | < 1000 nM |  | < 100 nM | < 100 nM | COc1ccc(C2=CCOCC2)c2ncc(NC(=O)c3cnc[nH]3)nc12 [compound 159, N-[5-(3,6-dihydro-2H-pyran-4-yl)-8-methoxyquinoxalin-2-yl]-1H-imidazole-5-carboxamide] |
|  |  | > 1000 nM |  | < 100 nM | < 100 nM | COc1ccc(-c2ccccc2)c2ncc(NC(=O)c3cnc[nH]3)nc12 [compound 160, N-(8-methoxy-5-phenylquinoxalin-2-yl)-1H-imidazole-5-carboxamide] |
